Test [1] addresses T1, recombinant human eotaxin (CCL11) (Homo sapiens, UniProt P51671).
T1 construct: host or cells: E. coli
Briefly: BIAcore inhibition of eotaxin-1 binding to immobilized heparin. Particulars: BIAcore chip, FIG. 3D. From the text: The optical phenomenon of surface plasmon resonance is used to monitor physical interactions between molecules. Passing a solution of a potential protein ligand (e.g. IL-4, IL-5 or eotaxin) over a sensor surface to which a target (e.g. heparin) is coupled monitors the real-time binding of protein ligands to the immobilized target. Detection is achieved by measuring refractive index changes very close to the sensor surface. When the refractive index is altered, the angle at which plasmon resonance occurs changes and this change directly correlates with the amount of protein interacting with the surface. A BIAcore 2000 is conveniently used. […]
Biotinylated heparin is immobilized on the biosensor chip. […] Solutions containing potential protein ligands of interest are injected over the sensor chip surface, and the binding is measured in real time (Fernig, In: Proteoglycan protocols, Ed. R. V. Iozzo, Humana Press, Totowa, N.J., USA, 2001). Baculovirus expressed recombinant human IL-4 (rhIL-4) and baculovirus expressed recombinant human IL-5 (rhIL-5) readily bind to heparin immobilized by this method (see PCT/AU2005/000551). […] Similarly, recombinant human eotaxin (CCL11) expressed in E. coli binds readily to immobilized heparin and binding is specific as there is little eotaxin binding to sensor chips lacking heparin. […]

For test [2], the target named is T2, Elastase (Homo sapiens, UniProt P08246).
T2 sequence (P08246 30-267): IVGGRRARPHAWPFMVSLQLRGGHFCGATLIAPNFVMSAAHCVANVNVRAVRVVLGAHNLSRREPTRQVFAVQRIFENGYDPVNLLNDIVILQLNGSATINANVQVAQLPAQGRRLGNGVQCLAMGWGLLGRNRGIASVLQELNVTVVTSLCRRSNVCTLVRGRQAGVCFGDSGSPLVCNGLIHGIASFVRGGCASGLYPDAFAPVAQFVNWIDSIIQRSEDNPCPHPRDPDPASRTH
Briefly: Elastase activity on collagen substrate. It counts as biochemical. Particulars: collagen coated wells, 37° C., 30 minutes. The procedure:
Elastase activity was also measured using a physiological substrate, collagen. For these experiments collagen was coated onto the wells of a microplate. Tris buffer (50 μl) was added together with 25 μl of either inhibitor (PPS or other sulfated polysaccharides) or buffer. The plate was incubated at 37° C. for 30 minutes, before staining the wells for protein. After drying the wells at room temperature the remaining colour was dissolved by adding 200 μl of lysis solution (10% w/v SDS in DMSO) and the OD measured at […]. Control experiments include collagen without enzyme digestion as 100% values and with enzyme digestion but without inhibitor as 0% values.

T1 sequence (P51671 24-97): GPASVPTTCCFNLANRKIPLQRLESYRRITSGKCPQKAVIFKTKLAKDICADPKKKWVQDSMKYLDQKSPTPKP

Pentosan polysulfate [PPS]: the 50% inhibitory concentration (IC50) – broadly, the point on the concentration scale where inhibition reaches its midpoint – in test [1] is around 15 nM. Besides, the “Inhibition of elastase activity on collagen (in words)” value in test [2] is given as “effective elastase inhibitor”.

The record behind these values is patent US20180078576A1, “SULPHATED XYLANS FOR TREATMENT OR PROPHYLAXIS OF RESPIRATORY DISEASES” (Paradigm Biopharmaceuticals Limited, priority 2007, published 2018).
